In brackets after ≈: the same amount, converted by molar mass.
What was measured:
Pseudomonas aeruginosa = experiment: Antibacterial activity against Pseudomonas aeruginosa incubated for 2 hrs followed by sterilized TSB addition and measured after 24 hrs by visual inspection; format: functional; settings: time 26 hrs
[1] = Binding affinity to iron assessed as pFe3+ at pH 7.4
Rattus norvegicus [2] = experiment: Iron scavenging activity in 59Fe-ferritin-loaded Wistar rat assessed as iron mobilization efficacy at 450 umol/kg, po dosed 1 hr after 59Fe-ferritin injection and measured 24 hrs after 59Fe-ferritin injection by gamma counting method relative to control; format: functional; settings: dose 450 µmol/kg
[3] = tested on: Human immunodeficiency virus 1; experiment: Antiviral activity against HIV1 BaL infected in human peripheral blood lymphocytes assessed as reduction in p24 production incubated for 5 days by ELISA; format: functional, organism-based; settings: Human immunodeficiency virus 1, BaL, PBL, 120 h
[4] = Binding affinity to Fe3+ assessed as pFe by UV-Vis spectrophotometric method
Acetylcholinesterase [5] = target: T1, Acetylcholinesterase (Electrophorus electricus, UniProt O42275); experiment: Inhibition of electric eel AChE using acetylthiocholine iodide as substrate preincubated for 15 mins followed by substrate addition and measured for 5 mins by Ellman's method
T1 sequence (O42275 whole entry): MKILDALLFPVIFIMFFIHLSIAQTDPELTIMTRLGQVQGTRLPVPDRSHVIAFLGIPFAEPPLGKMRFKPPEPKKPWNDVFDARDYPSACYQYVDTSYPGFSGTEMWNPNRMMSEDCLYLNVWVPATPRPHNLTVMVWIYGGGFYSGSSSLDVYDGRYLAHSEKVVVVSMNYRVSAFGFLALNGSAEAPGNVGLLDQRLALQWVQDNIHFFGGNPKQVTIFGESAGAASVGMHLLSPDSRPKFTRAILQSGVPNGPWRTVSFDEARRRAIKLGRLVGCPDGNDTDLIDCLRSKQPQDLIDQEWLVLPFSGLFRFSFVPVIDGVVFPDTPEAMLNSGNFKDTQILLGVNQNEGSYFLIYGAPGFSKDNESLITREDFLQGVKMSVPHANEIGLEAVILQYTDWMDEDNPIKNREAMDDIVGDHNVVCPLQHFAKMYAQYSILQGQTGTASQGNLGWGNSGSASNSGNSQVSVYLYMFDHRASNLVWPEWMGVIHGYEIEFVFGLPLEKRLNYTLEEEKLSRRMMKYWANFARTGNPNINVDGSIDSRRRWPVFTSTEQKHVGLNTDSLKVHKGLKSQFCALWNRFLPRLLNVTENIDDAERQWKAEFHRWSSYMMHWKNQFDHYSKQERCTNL

[6] = Antioxidant activity assessed as DPPH radical scavenging activity incubated for 30 mins by absorbance method; format: functional
Acetylcholinesterase [7] = target: T1, Acetylcholinesterase; experiment: Inhibition of electric eel AChE using acetylthiocholine iodide as substrate preincubated for 15 mins followed by substrate addition and measured for 5 mins by Ellman's reagent based UV-Vis spectrophotometric method
[8] = target: T2, Amyloid-beta precursor protein (Homo sapiens, UniProt P05067); experiment: Inhibition of self-induced amyloid beta (1 to 42) (unknown origin) aggregation measured after 24 hrs by ThT fluorescence assay relative to control; settings: concentration not given here
T2 sequence (P05067 whole entry): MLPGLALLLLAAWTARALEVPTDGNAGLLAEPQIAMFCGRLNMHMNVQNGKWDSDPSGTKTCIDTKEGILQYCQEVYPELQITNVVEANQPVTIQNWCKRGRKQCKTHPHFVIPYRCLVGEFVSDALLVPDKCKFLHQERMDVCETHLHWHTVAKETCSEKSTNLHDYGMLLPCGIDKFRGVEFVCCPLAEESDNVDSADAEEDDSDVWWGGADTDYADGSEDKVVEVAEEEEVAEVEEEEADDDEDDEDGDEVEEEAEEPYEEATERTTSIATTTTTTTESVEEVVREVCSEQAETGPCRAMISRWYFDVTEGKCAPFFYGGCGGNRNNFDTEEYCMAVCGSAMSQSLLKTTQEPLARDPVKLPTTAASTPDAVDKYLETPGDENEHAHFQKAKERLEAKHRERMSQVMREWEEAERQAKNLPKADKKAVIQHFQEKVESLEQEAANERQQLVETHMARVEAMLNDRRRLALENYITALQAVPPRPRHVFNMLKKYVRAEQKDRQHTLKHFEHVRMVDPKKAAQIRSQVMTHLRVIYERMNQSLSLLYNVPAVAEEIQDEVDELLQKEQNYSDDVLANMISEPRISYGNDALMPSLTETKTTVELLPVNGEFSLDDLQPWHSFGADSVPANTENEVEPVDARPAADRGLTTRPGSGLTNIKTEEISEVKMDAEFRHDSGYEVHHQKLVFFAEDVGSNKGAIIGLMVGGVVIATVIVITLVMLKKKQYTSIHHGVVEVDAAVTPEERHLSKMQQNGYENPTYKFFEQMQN

[9] = Octanol-buffer partition coefficient, logP of the compound at pH 7.4 by shake flask method; format: physicochemical
[10] = Binding affinity to iron assessed as pFe3+
[11] = Octanol/water partition coefficient, log P of the compound shaken for 45 mins and measured after 15 mins; format: physicochemical; settings: time 60 min
[12] = Electrochemical behavior of the compound assessed as redox potential; format: physicochemical
[13] = Partition coefficient, log P of the compound; format: physicochemical; settings: octanol/water
[14] = Binding affinity to Fe3+ assessed as pFe at by potentiometric/UV-Vis spectrophotometric method
[15] = Binding affinity to Cu2+ assessed as pCu at pH 7.4 by potentiometric/UV-Vis spectrophotometric method
Acetylcholinesterase [16] = target: Acetylcholinesterase (Torpedo californica, UniProt P04058); experiment: Inhibition of Torpedo californica AChE using acetylthiocholine iodide as substrate preincubated for 15 mins followed by substrate addition and measured for 5 mins; parameters: species or system Tetronarce californica
Acetylcholinesterase (Torpedo californica, UniProt P04058), sequence (P04058 whole entry): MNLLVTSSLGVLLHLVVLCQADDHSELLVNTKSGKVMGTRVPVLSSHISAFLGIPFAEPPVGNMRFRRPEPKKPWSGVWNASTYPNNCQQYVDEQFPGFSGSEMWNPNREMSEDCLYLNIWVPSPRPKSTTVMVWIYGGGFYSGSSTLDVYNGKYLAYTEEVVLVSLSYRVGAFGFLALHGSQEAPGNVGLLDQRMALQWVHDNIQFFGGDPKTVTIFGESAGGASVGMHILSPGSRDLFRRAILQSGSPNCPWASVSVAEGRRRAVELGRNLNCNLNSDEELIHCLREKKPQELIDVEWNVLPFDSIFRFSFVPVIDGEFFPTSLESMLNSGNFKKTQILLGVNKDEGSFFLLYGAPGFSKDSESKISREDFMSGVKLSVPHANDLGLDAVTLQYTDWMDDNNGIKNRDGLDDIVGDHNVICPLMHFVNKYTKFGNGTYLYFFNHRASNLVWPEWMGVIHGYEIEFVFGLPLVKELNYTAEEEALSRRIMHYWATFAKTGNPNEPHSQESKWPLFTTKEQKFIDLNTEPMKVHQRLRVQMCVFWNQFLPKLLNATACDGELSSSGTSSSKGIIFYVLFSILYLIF

[17] = target: T2, Amyloid-beta precursor protein; experiment: Inhibition of human amyloid beta (1 to 42) aggregation incubated for 24 hrs by ThT fluorescence assay; settings: concentration not given here
Plasmodium falciparum [18] = experiment: Antiplasmodial activity against chloroquine-sensitive Plasmodium falciparum 3D7 incubated for 48 hrs by parasite lactate dehydrogenase assay; format: functional, organism-based; settings: 3D7, 48 h
Plasmodium falciparum [19] = experiment: Antiplasmodial activity against chloroquine-sensitive Plasmodium falciparum D10 incubated for 48 hrs by parasite lactate dehydrogenase assay; format: functional, organism-based; settings: D10, 48 h
Plasmodium falciparum [20] = experiment: Antiplasmodial activity against chloroquine-resistant Plasmodium falciparum K1 incubated for 48 hrs by parasite lactate dehydrogenase assay; format: functional, organism-based; settings: K1, 48 h
Plasmodium falciparum [21] = experiment: Antiplasmodial activity against chloroquine-resistant Plasmodium falciparum Dd2 incubated for 48 hrs by parasite lactate dehydrogenase assay; format: functional, organism-based; settings: Dd2, 48 h
Staphylococcus aureus [22] = experiment: Antibacterial activity against Staphylococcus aureus incubated for 2 hrs followed by sterilized TSB addition and measured after 24 hrs by visual inspection; format: functional; settings: time 26 hrs
Bacillus subtilis = experiment: Antibacterial activity against Bacillus subtilis incubated for 2 hrs followed by sterilized TSB addition and measured after 24 hrs by visual inspection; format: functional; settings: time 26 hrs
Escherichia coli = experiment: Antibacterial activity against Escherichia coli incubated for 2 hrs followed by sterilized TSB addition and measured after 24 hrs by visual inspection; format: functional; settings: time 26 hrs
[23] = Antioxidant activity assessed as DPPH radical scavenging activity incubated for 30 mins by UV-Vis spectrophotometric method; format: functional
Providencia stuartii = experiment: Antibacterial activity against Providencia stuartii incubated for 24 hrs by visual inspection; format: functional
Staphylococcus aureus [24] = experiment: Antibacterial activity against Staphylococcus aureus incubated for 2 hrs followed by sterilized water addition and measured after 24 hrs by visual inspection; format: functional; settings: time 26 hrs
[25] = Binding affinity to Fe3+ assessed as binding constant
[26] = Binding affinity to iron assessed as pFe3+ at pH 7.45
Rattus norvegicus [27] = experiment: Iron scavenging activity in 59Fe-ferritin-loaded rat assessed as iron mobilization efficacy at 450 umol/kg, po dosed 1 hr after 59Fe-ferritin injection and measured 24 hrs after 59Fe-ferritin injection by gamma counting method relative to control; format: functional; settings: dose 450 µmol/kg; time 23 hrs
[28] = Binding affinity to iron assessed as pFe3+ at pH 7.4 by spectrophotometric method
[29] = Antioxidant activity assessed as ABTS radical scavenging activity by trolox-equivalent antioxidant capacity assay; format: functional
[30] = target: T2, Amyloid-beta precursor protein; experiment: Inhibition of self-induced amyloid beta (1 to 42) (unknown origin) aggregation by ThT fluorescence assay
[31] = target: T2, Amyloid-beta precursor protein; experiment: Inhibition of self-induced amyloid beta (1 to 42) (unknown origin) aggregation by ThT fluorescence assay relative to control; settings: concentration not given here
Staphylococcus aureus [32] = experiment: Protection against Staphylococcus aureus Smith infected in sc dosed mouse administered 1 hr post infection and measured at 7 days post infection by Litchfield-Wilcoxon method; format: functional; settings: 168 h, time 7 day
Acetylcholinesterase [33] = target: T1, Acetylcholinesterase; experiment: Inhibition of electric eel AChE using acetylthiocholine iodide as substrate preincubated for 5 mins followed by substrate addition and measured after 2 mins by Ellman's method
[34] = Binding affinity to iron assessed as pFe3+ by spectrophotometric method

CCCCCCn1ccc(=O)c(O)c1C(=O)NCCCC(CCCNC(=O)c1c(O)c(=O)ccn1CCCCCC)(CCCNC(=O)c1c(O)c(=O)ccn1CCCCCC)NC(=O)CCC
MIC (Pseudomonas aeruginosa): 32 µg/mL (≈ 34.2 µM)

CNC(=O)c1c(O)c(=O)cc(C)n1C
Activity [1]: 21.7 | Efficacy (Rattus norvegicus [2]): 58.7% | IC50 [3]: 33.3 µM

Cc1cc(=O)c(O)c(CO)n1CCCn1cc(COc2ccc3ccc(=O)oc3c2)nn1
Activity [4]: 19.8

Cc1c(O)c(=O)ccn1CC(=O)NCCCNc1c2c(nc3ccccc13)CCCC2
IC50 (Acetylcholinesterase [5]): 0.64 µM

Cc1c(OCc2ccccc2)c(=O)ccn1-c1ccc(CC(=O)NCc2ccc(-c3nc4ccccc4s3)cc2)cc1
IC50 [6]: > 1000 µM | IC50 (Acetylcholinesterase [7]): 13.8 µM | inhibition [8]: 68.9%

CC(=O)NCCOCCOCCn1ccc(=O)c(O)c1C
logD [9]: -2.01

Cc1c(O)c(=O)ccn1C [DEFERIPRONE]
Activity [10]: 20.4 | logP at 1 h [11]: 0.17 | Efficacy (Rattus norvegicus [2]): 13.4% | IC50 [3]: 102 µM | Activity [12]: -620 mV

Cc1c(O)c(=O)ccn1CCN1CCCCC1
logP [13]: 0.96

COc1cccc2cc(C(=O)NCCn3ccc(=O)c(O)c3C)oc12
EC50 [6]: 199 µM | Activity [14]: 17.3 | Activity [15]: 6.5 | IC50 (Acetylcholinesterase [16]): 246 µM | inhibition [17]: 49.8%

CN(C)C(=O)c1cccc(O)c1O
Activity [10]: 15

Cc1c(O)c(=O)ccn1CC(=O)NCC(O)CNc1c2c(nc3cc(Cl)ccc13)CCCC2 (centres undefined)
IC50 (Acetylcholinesterase [5]): 0.64 µM

CNC(=O)c1[nH]c(C)cc(=O)c1O
Activity [1]: 22.8 | Efficacy (Rattus norvegicus [2]): 50.1% | IC50 [3]: 20 µM

O=c1cc(CNCCCCCCNc2ccnc3cc(Cl)ccc23)n(C2CC2)cc1OCc1ccccc1
IC50 (Plasmodium falciparum [18]): 0.064 µM | IC50 (Plasmodium falciparum [19]): 0.047 µM | IC50 (Plasmodium falciparum [20]): 0.505 µM | IC50 (Plasmodium falciparum [21]): 0.463 µM

CCCC(=O)NC(CCCNC(=O)c1c(O)c(=O)ccn1C)(CCCNC(=O)c1c(O)c(=O)ccn1C)CCCNC(=O)c1c(O)c(=O)ccn1C
MIC (Staphylococcus aureus [22]): 8 µg/mL (≈ 11 µM) | MIC (Bacillus subtilis): 8 µg/mL (≈ 11 µM) | MIC (Pseudomonas aeruginosa): 16 µg/mL (≈ 22 µM) | MIC (Escherichia coli): 8 µg/mL (≈ 11 µM)

Cc1c(O)c(=O)ccn1CC(=O)NCCCNc1c2c(nc3cc(Cl)ccc13)CCCC2
inhibition [8]: 95.2% | IC50 (Acetylcholinesterase [5]): 0.86 µM | EC50 [23]: 1110 µM

O=c1cc(CO)[nH]cc1O
Activity [10]: 22

COCCOCCOCC(=O)NC(CCC(=O)NCc1c(O)c(=O)cc(C)n1C)(CCC(=O)NCc1c(O)c(=O)cc(C)n1C)CCC(=O)NCc1c(O)c(=O)cc(C)n1C
MIC (Providencia stuartii): 320 µg/mL (≈ 373 µM) | MIC (Staphylococcus aureus [24]): 240 µg/mL (≈ 280 µM)

COCCn1ccc(=O)c(O)c1C(=O)NCCCC(CCCNC(=O)c1c(O)c(=O)ccn1CCOC)(CCCNC(=O)c1c(O)c(=O)ccn1CCOC)NC(=O)[C@@H](N)CC(C)C
MIC (Pseudomonas aeruginosa): 128 µg/mL (≈ 142 µM)

Cc1c(O)c(=O)ccn1CC(=O)NCCNc1c2c(nc3cc(Cl)ccc13)CCCC2
IC50 (Acetylcholinesterase [5]): 0.64 µM

CCc1c(OCc2ccccc2)c(=O)ccn1CCCCCCNc1ccnc2cc(Cl)ccc12
IC50 (Plasmodium falciparum [18]): 0.041 µM | IC50 (Plasmodium falciparum [19]): 0.122 µM | IC50 (Plasmodium falciparum [20]): 0.089 µM | IC50 (Plasmodium falciparum [21]): 0.076 µM

CC(=O)N(C)O
Activity [10]: 13

CCc1c(O)c(=O)ccn1CCCn1cc(COc2cc3ccccc3oc2=O)nn1
Activity [4]: 17.1

Oc1cccc2cccnc12 [OXYQUINOLINE]
Activity [12]: -150 mV

CCCCn1ccc(=O)c(O)c1C(=O)NCCCC(CCCNC(=O)c1c(O)c(=O)ccn1CCCC)(CCCNC(=O)c1c(O)c(=O)ccn1CCCC)NC(=O)[C@@H](N)CC(C)C
MIC (Pseudomonas aeruginosa): 32 µg/mL (≈ 35.7 µM)

CCCC(=O)NC(CCCNC(=O)c1c(O)c(=O)ccn1CCOC)(CCCNC(=O)c1c(O)c(=O)ccn1CCOC)CCCNC(=O)c1c(O)c(=O)ccn1CCOC
MIC (Pseudomonas aeruginosa): 32 µg/mL (≈ 37.3 µM)

O=C(NCCN(CCNC(=O)c1[nH]ccc(=O)c1O)CCNC(=O)c1[nH]ccc(=O)c1O)c1[nH]ccc(=O)c1O
Activity [10]: 30.5 | log Ks [25]: 30.7

CCn1ccc(=O)c(O)c1C(C)O (centres undefined)
Activity [26]: 21.4 | Efficacy (Rattus norvegicus [27]): 54.5%

Cc1c(O)c(=O)ccn1CCCC(=O)NCc1ccc(Cc2nc3ccccc3s2)cc1
Activity [28]: 19.4

CCn1ccc(=O)c(O)c1C(=O)NCCCC(CCCNC(=O)c1c(O)c(=O)ccn1CC)(CCCNC(=O)c1c(O)c(=O)ccn1CC)NC(=O)[C@@H](N)CC(C)C
MIC (Pseudomonas aeruginosa): 32 µg/mL (≈ 39.5 µM)

O=c1cc(/C=C/c2nc3ccccc3o2)occ1O
Activity [29]: 4.29 | IC50 [30]: 7.05 µM | inhibition [31]: 65%

Cc1c(O)c(=O)ccn1CCCC(=O)N1CCCC1c1nc2ccccc2s1 (centres undefined)
Activity [28]: 19.2 | IC50 [6]: 148 µM | IC50 (Acetylcholinesterase [7]): 14.7 µM | inhibition [8]: 59.3%

O=c1cc(/C=C/c2nc3ccc(O)cc3s2)occ1O
Activity [29]: 6.03 | IC50 [30]: 5.06 µM | inhibition [31]: 78.3%

CO/N=C(\C(=O)N[C@@H]1C(=O)N2C(C(=O)[O-])=C(C[n+]3cccc4c3CCC4)CS[C@H]12)c1csc(N)n1 [CEFPIROME]
ED50 (Staphylococcus aureus [32]): 1.5 mg/kg

Cc1c(OC(N)=O)c(=O)ccn1-c1ccccc1
IC50 (Acetylcholinesterase [33]): 48.8 µM

Cc1c(O)c(=O)ccn1CC(=O)NCC(O)CNc1c2c(nc3ccccc13)CCCC2 (centres undefined)
Activity [10]: 21.7 | inhibition [8]: 86% | IC50 (Acetylcholinesterase [5]): 0.96 µM | EC50 [23]: 399 µM

CCCC(=O)NC(CCCNC(=O)c1c(O)c(=O)ccn1CC)(CCCNC(=O)c1c(O)c(=O)ccn1CC)CCCNC(=O)c1c(O)c(=O)ccn1CC
MIC (Pseudomonas aeruginosa): 32 µg/mL (≈ 41.7 µM)

CCCC(=O)NC(CCCNC(=O)c1c(O)c(=O)ccn1CCO)(CCCNC(=O)c1c(O)c(=O)ccn1CCO)CCCNC(=O)c1c(O)c(=O)ccn1CCO
MIC (Staphylococcus aureus [22]): 8 µg/mL (≈ 9.81 µM) | MIC (Bacillus subtilis): 8 µg/mL (≈ 9.81 µM) | MIC (Pseudomonas aeruginosa): 16 µg/mL (≈ 19.6 µM) | MIC (Escherichia coli): 8 µg/mL (≈ 9.81 µM)

CCC(O)c1c(O)c(=O)cc(C)n1C (centres undefined)
Activity [26]: 21 | Efficacy (Rattus norvegicus [27]): 60.4%

CC(=O)N(O)CCCCCNC(=O)CCC(=O)N(O)CCCCCNC(=O)CCC(=O)N(O)CCCCCN [DEFEROXAMINE]
Activity [10]: 26.6 | Activity [12]: -468 mV

CCCCn1ccc(=O)c(O)c1C(=O)NCCCC(CCCNC(=O)c1c(O)c(=O)ccn1CCCC)(CCCNC(=O)c1c(O)c(=O)ccn1CCCC)NC(=O)CCC
MIC (Pseudomonas aeruginosa): 32 µg/mL (≈ 37.6 µM)

CC(=O)NCCCCCCn1ccc(=O)c(O)c1C
logP at 1 h [11]: 0.53 | Activity [34]: 20.3

COc1cccc2cc(C(=O)NCCn3ccc(=O)c(OCc4ccccc4)c3C)oc12
EC50 [6]: > 1000 µM | IC50 (Acetylcholinesterase [16]): 76 µM | inhibition [17]: 36.1%

Cc1c(O)c(=O)ccn1CC(=O)NCCCCNc1c2c(nc3cc(Cl)ccc13)CCCC2
IC50 (Acetylcholinesterase [5]): 0.64 µM

— ChEMBL document CHEMBL4706610, “Hydroxypyridinone-Based Iron Chelators with Broad-Ranging Biological Activities” (J Med Chem, 2020)
